The values below come from publication PMC4672351, “Drug-Drug Interaction Potentials of Tyrosine Kinase Inhibitors via Inhibition of UDP-Glucuronosyltransferases” (Scientific Reports, 2015).

Data set [1] deals with T1, UGT2B4 (Homo sapiens, UniProt P06133).
T1 construct: purchased BD Gentest (Woburn, MA); host or cells: baculovirus-infected insect cells
T1 sequence (P06133 24-528): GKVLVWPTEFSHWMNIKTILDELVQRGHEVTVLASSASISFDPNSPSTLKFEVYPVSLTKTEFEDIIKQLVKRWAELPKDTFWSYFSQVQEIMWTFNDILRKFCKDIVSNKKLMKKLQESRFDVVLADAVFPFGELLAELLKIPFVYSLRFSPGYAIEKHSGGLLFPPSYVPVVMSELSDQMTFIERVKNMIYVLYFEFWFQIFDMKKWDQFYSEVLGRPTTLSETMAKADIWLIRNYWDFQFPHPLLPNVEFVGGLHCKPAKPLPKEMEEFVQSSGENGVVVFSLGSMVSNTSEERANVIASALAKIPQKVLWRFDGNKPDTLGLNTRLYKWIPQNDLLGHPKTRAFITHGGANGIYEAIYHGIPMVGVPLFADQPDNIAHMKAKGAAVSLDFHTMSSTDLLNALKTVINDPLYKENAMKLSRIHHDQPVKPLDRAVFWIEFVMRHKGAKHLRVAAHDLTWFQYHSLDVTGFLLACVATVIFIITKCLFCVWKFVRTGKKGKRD
The data set is described as follows: Inhibition of 4-MU glucuronidation by recombinant UGT2B4. The data set is classed as in vitro ADME. To be noted: recombinant UGT2B4, pH 7.4, probe 4-MU, 100 μM inhibitor, 4-MU substrate, read-out: Remaining activities (%) of UGT2B4.

Data set [2] is described as follows: Estimation of in vivo TKI concentrations after repeated oral administration. The following applies: calculated from literature PK parameters. Further details: species or system human.
In data set [3] the target is T2, UGT1A4 (Homo sapiens, UniProt P22310).
T2 sequence (P22310 29-534): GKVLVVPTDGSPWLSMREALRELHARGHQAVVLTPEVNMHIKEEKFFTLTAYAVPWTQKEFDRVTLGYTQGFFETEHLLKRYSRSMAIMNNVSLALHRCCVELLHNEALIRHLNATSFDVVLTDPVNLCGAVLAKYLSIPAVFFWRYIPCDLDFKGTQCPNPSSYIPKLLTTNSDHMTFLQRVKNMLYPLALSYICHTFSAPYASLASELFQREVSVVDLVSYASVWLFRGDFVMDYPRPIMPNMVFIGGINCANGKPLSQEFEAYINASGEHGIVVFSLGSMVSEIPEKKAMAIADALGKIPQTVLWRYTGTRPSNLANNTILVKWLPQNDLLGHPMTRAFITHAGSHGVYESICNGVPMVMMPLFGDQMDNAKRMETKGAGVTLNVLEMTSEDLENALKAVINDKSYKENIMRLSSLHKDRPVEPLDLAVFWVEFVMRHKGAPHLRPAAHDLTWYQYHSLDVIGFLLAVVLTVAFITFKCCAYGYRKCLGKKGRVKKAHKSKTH
The data set is described as follows: Inhibition of TFP glucuronidation by recombinant UGT1A4. The following applies: for activity at 30 min, 100 µM: human.

For data set [4], the target named is T3, UGT1A8 (Homo sapiens, UniProt Q9HAW9).
T3 sequence (Q9HAW9 26-530): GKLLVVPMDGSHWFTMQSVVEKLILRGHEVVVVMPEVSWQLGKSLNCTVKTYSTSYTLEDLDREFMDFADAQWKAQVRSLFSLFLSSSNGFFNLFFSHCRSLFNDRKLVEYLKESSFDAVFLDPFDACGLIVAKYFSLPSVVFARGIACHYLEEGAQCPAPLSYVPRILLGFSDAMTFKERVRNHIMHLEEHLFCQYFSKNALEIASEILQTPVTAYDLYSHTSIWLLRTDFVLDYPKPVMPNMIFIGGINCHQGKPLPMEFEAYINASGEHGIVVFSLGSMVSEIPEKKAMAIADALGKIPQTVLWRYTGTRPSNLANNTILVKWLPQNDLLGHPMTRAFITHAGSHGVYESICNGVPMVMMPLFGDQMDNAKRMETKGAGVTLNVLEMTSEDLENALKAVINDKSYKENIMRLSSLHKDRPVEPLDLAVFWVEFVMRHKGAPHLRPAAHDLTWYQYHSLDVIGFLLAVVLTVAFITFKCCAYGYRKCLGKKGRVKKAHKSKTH
The data set is described as follows: Inhibition of 4-MU glucuronidation by recombinant UGT1A8. The following applies: recombinant UGT1A8, pH 7.4, probe 4-MU.

The target in data set [5] is T4, UGT1A10 (Homo sapiens, UniProt Q9HAW8).
T4 sequence (Q9HAW8 26-530): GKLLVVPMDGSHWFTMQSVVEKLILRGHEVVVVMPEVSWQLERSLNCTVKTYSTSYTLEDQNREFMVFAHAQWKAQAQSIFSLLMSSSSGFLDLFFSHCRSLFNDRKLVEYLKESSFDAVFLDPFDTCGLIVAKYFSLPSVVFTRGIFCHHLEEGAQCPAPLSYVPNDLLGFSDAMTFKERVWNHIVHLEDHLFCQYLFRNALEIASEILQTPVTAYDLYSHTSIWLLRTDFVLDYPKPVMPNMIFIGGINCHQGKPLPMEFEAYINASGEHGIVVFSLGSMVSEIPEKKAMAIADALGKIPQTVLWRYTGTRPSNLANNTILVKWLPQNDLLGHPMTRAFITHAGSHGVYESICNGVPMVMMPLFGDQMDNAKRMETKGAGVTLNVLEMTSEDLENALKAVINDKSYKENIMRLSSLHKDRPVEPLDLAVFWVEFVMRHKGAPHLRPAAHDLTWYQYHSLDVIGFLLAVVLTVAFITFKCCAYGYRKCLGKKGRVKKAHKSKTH
The data set is described as follows: Inhibition of 4-MU glucuronidation by recombinant UGT1A10. The following applies: recombinant UGT1A10, pH 7.4, probe 4-MU.

The target of data set [6] is T5, UGT2B15 (Homo sapiens, UniProt P54855).
T5 sequence (P54855 24-530): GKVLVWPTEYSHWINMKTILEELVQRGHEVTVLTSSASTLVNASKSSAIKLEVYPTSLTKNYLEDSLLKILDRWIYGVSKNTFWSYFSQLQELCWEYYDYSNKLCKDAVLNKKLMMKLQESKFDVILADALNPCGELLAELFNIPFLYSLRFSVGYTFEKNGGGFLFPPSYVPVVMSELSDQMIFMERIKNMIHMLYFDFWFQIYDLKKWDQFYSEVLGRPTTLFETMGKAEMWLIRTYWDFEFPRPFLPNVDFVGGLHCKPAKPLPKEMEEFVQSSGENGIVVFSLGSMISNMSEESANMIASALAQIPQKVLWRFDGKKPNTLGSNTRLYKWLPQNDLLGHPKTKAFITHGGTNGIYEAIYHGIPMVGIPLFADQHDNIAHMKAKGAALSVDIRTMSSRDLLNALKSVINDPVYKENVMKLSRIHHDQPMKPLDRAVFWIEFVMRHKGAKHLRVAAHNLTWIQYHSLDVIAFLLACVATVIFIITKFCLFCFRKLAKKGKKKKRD
Description: Inhibition of 4-MU glucuronidation by recombinant UGT2B15. The following applies: recombinant UGT2B15, pH 7.4, probe 4-MU.

Where [7] appears, read: recombinant UGT1A4, pH 7.4, probe TFP (trifluoperazine).

Molecules are shown by their SMILES.

Take `CS(=O)(=O)CCNCc1ccc(-c2ccc3ncnc(Nc4ccc(OCc5cccc(F)c5)c(Cl)c4)c3c2)o1` [Lapatinib, lapatinib]: the activity at 120 min, 100 µM in data set [1] is 105.1 ± 0.2%. In data set [2], the “Calculated Concentrations Iav (average systemic plasma concentration)” value (shortened to “Calculated Concentrations Iav”) was 0.79 µM, the “Calculated Concentrations Iin,u (maximum unbound hepatic input concentration)” value was 0.12 µM and the “Calculated Concentrations Imax,u (maximum unbound systemic plasma concentration)” value is 0.011 µM. In data set [3], the IC50 (commonly the midpoint of a concentration-inhibition curve) stood at 3.8 ± 0.7 µM; the Ki (commonly the dissociation constant of the complex between target and ligand, obtained from inhibition or displacement) was 36.4 ± 5 µM. For the same compound, in data set [3] (TFP substrate), the “inhibition type, UGT1A4” value is recorded as “mixed”. Moreover, the activity at 30 min, 100 µM in data set [3] (setting [7]) was 40.7 ± 1.9%. In addition, the activity at 30 min, 100 µM in data set [4] was found to be 73.5 ± 10.6%. The activity at 120 min, 100 µM in data set [5] came out at 73.6 ± 4.8%. Further, the activity at 120 min, 100 µM in data set [6] stood at 110 ± 3.1%.

Turning to `CNC(=O)c1ccccc1Sc1ccc2c(/C=C/c3ccccn3)n[nH]c2c1` [Axitinib, axitinib], the activity at 120 min, 100 µM in data set [1] came to 42.1 ± 1.6%; in data set [5], 55.5 ± 2.7%; in data set [6], 49.3 ± 5.2%. Also, in data set [2], the “Calculated Concentrations Iav” value was 0.024 µM. For the same compound, the “Calculated Concentrations Iin,u (maximum unbound hepatic input concentration)” value in data set [2] was 0.00086 µM. For the same compound, the “Calculated Concentrations Imax,u (maximum unbound systemic plasma concentration)” value in data set [2] is 0.00067 µM. The IC50 in data set [3] was determined as 14.2 ± 3.2 µM. The activity at 30 min, 100 µM in data set [3] (pH 7.4) is 14.9 ± 1.8%; in data set [4], 54.6 ± 2.4%.

Turning to `COc1cc2c(Nc3ccc(Br)cc3F)ncnc2cc1OCC1CCN(C)CC1` [Vandetanib, vandetanib], the activity at 120 min, 100 µM was 80.8 ± 6.6% in data set [1], 49 ± 0.4% in data set [5] and 79.2 ± 1.4% in data set [6]. Moreover, the “Calculated Concentrations Iav” value in data set [2] is 1.99 µM. The “Calculated Concentrations Iin,u (maximum unbound hepatic input concentration)” value in data set [2] is 0.23 µM. The “Calculated Concentrations Imax,u (maximum unbound systemic plasma concentration)” value in data set [2] is 0.12 µM. In addition, the activity at 30 min, 100 µM in data set [3] (setting [7]) amounted to 62.8%; in data set [4] it was 56 ± 6.3%.
